For orientation: IC50 means the point on the concentration scale where inhibition reaches its midpoint.

Our source for the IC50 values is patent US20230167105A1, “BCL-2 PROTEIN INHIBITORS” (Recurium IP Holdings, LLC, priority 2020, published 2023).

Some results are limits rather than exact numbers.

The experiment deals with MOLT-4 cells. Kind of experiment: MOLT-4 Cell Proliferation Assay (CellTiter-Glo). Conditions: Homo sapiens, 72 h, read-out: MOLT-4 CTG IC50. It is filed as cell-based. As to the method: Cell proliferation was measured using the CellTiter-Glo® Luminescent Cell Viability Assay. The assay involved the addition of a single reagent (CellTiter-Glo® Reagent) directly to cells cultured in serum-supplemented medium. MOLT-4 cells (ATCC, CRL-1582) were cultured according to ATCC recommendations and were seeded at 50,000 cells per well.
Each compound evaluated was prepared as a DMSO stock solution (10 mM). Compounds were tested in duplicate on each plate, with a 10-point serial dilution curve (1:3 dilution). The highest compound concentration was 10 μM (final), with a 0.1% final DMSO concentration. Plates were then incubated at 37° C., 5% CO2 for 72 h, cell plates were equilibrated at rt for approximately 30 mins. An equi-volume amount of CellTiter-Glo® Reagent (100 μL) was added to each well. Plates were mixed for 2 mins on an orbital shaker to induce cell lysis and then incubated at rt for 10 mins to stabilize the luminescent signal. Luminescence was recorded using a Envision plate reader according to CellTiter-Glo protocol. IC50 of each compound was calculated using GraphPad Prism by nonlinear regression analysis.
For orientation: Cellular ATP, detected with luciferase, serves as a proxy for viable cell number.

Consider `CC1(C)CCC(CN2CCN(c3ccc(C(=O)NS(=O)(=O)c4ccc(N[C@H](CCN5CCN(CCCC#Cc6cccc7c6CN(C6CCC(=O)NC6=O)C7=O)CC5)CSc5ccccc5)c(S(=O)(=O)C(F)(F)F)c4)cc3)CC2)=C(C23CC(C(F)F)(C2)C3)C1` (stereo partly drawn) [Example 29, 4-(4-((2-(3-(difluoromethyl)bicyclo[1.1.1]pentan-1-yl)-4,4-dimethylcyclohex-1-en-1-yl)methyl)piperazin-1-yl)-N-((4-(((2R)-4-(4-(5-(2-(2,6-dioxopiperidin-3-yl)-1-oxoisoindolin-4-yl)pent-4-yn-1-yl)piperazin-1-yl)-1-(phenylthio)butan-2-yl)amino)-3-((trifluoromethyl)sulfonyl)phenyl)sulfonyl)benzamide], for which the IC50 was at most 50 nM.

Consider `Cc1ncsc1-c1ccc(CNC(=O)[C@@H]2C[C@@H](O)CN2C(=O)[C@@H](NC(=O)CCCCCC(=O)N2CCN(CC[C@H](CSc3ccccc3)Nc3ccc(S(=O)(=O)NC(=O)c4ccc(N5CCN(CC6=C(C78CC(C(F)F)(C7)C8)CC(C)(C)CC6)CC5)cc4)cc3S(=O)(=O)C(F)(F)F)CC2)C(C)(C)C)cc1` [Example 45, (2S,4R)-1-((S)-2-(7-(4-((R)-3-((4-(N-(4-(4-((2-(3-(difluoromethyl)bicyclo[1.1.1]pentan-1-yl)-4,4-dimethylcyclohex-1-en-1-yl)methyl)piperazin-1-yl)benzoyl)sulfamoyl)-2-((trifluoromethyl)sulfonyl)phenyl)amino)-4-(phenylthio)butyl)piperazin-1-yl)-7-oxoheptanamido)-3,3-dimethylbutanoyl)-4-hydroxy-N-(4-(4-methylthiazol-5-yl)benzyl)pyrrolidine-2-carboxamide], for which the IC50 is at least 150 nM.

With `Cc1ncsc1-c1ccc([C@H](CC(=O)NCCCCCC(=O)N2CCN(CC[C@H](CSc3ccccc3)Nc3ccc(S(=O)(=O)NC(=O)c4ccc(N5CCN(CC6=C(C78CC(C(F)F)(C7)C8)CC(C)(C)CC6)CC5)cc4)cc3S(=O)(=O)C(F)(F)F)CC2)NC(=O)[C@@H]2C[C@@H](O)CN2C(=O)[C@@H](NC(=O)C2(F)CC2)C(C)(C)C)cc1` [Example 47], the IC50 is at least 150 nM.

`Cc1ncsc1-c1ccc([C@H](CC(=O)NCCCCCCN2CCN(CC[C@H](CSc3ccccc3)Nc3ccc(S(=O)(=O)NC(=O)c4ccc(N5CCN(CC6=C(C78CC(C(F)F)(C7)C8)CC(C)(C)CC6)CC5)cc4)cc3S(=O)(=O)C(F)(F)F)CC2)NC(=O)[C@@H]2C[C@@H](O)CN2C(=O)[C@@H](NC(=O)C2(F)CC2)C(C)(C)C)cc1` [Example 48]: the IC50 is at least 150 nM.

For the molecule `Cc1ncsc1-c1ccc([C@H](CC(=O)NCCCCCCN(C)CC[C@H](CSc2ccccc2)Nc2ccc(S(=O)(=O)NC(=O)c3ccc(N4CCN(CC5=C(C67CC(C(F)F)(C6)C7)CC(C)(C)CC5)CC4)cc3)cc2S(=O)(=O)C(F)(F)F)NC(=O)[C@@H]2C[C@@H](O)CN2C(=O)[C@@H](NC(=O)C2(F)CC2)C(C)(C)C)cc1` [Example 49, (2S,4R)—N-[(1S)-3-[6-[[(3R)-3-[4-[[4-[4-[[2-[3-(difluoromethyl)-1-bicyclo[1.1.1]pentanyl]-4,4-dimethyl-cyclohexen-1-yl]methyl]piperazin-1-yl]benzoyl]sulfamoyl]-2-(trifluoromethylsulfonyl)anilino]-4-phenylsulfanyl-butyl]-methyl-amino]hexylamino]-1-[4-(4-methylthiazol-5-yl)phenyl]-3-oxo-propyl]-1-[(2S)-2-[(1-fluorocyclopropanecarbonyl)amino]-3,3-dimethyl-butanoyl]-4-hydroxy-pyrrolidine-2-carboxamide], the IC50 was at least 150 nM.
